Converted amounts (≈) assume the structure as drawn. “Also recorded” adds a separate entry of the source. Read-outs that look alike come from different tables or passages of the source.
Tests used:
[1] = cited from earlier work
[2] = test system: fungi; settings: cited from earlier work
[3] = temperature or pH; cited from earlier work
[4] = test system: C. albicans; assay: microbe, parasite or virus in culture; type: cell-based
Protocol: The yeast strains were cultivated and suspended in Sabouraud's Dextrose (SD) broth diluted at one sixth at a starting OD600=˜0.08 in a flat-bottomed microtitre plate. A serial dilution of peptide in the same broth was mixed with the inoculum to give a final peptide concentration of 0.4-22 μM. The antifungal activity was assessed by monitoring the OD600 in cycles of 30 minutes and an orbital shaking at 100 rpm using an Infinite M200 microplate reader (Tecan Group Ltd., Switzerland) for 24/48 h at 37° C. Cultures without peptides were used as positive controls and broth alone or with 22 μM peptide served as negative controls. The minimum concentration required for complete inhibition was assessed by both visible observations as well as by measuring the OD600 and taken as the MIC. Each experiment was repeated in triplicates.

[5] = test system: rabbit red blood cells; type: cell-based
Protocol: Haemolytic activity of peptides and antifungal drugs were determined against rabbit red blood cells (Oren et al., 1997). Briefly, serial dilution of peptides/antifungals in PBS was mixed with rRBC (final concentration 4% v/v), incubated at 37° C. for 1 h and centrifuged at 3000 rpm for 10 minutes. The release of hemoglobin in the supernatant was monitored by measuring the hemoglobin absorbance at 576 nm. The readings from cell suspension in PBS (without any additives) or 1% Triton-X100 were used as 0% or 100% haemolysis.

[6] = test system: IOBA-NHC cells; type: cell-based, human; settings: 24 h incubation; read-out: EC50 (concentration that reduces the viable cells by 50%)
How it was run: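 Subconfluent (~70%) IOBA-NHC conjunctival cells, passages 50–80, seeded ~10,000/well and grown 24 h at 37 °C in supplemented DMEM/F12 with 10% FBS. Exposed to peptide at 0.22–225 μM; cytotoxicity followed over time by MultiTox-Fluor […] fluorescence (ex 485/em 520 nm).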

[7] = test system: C. albicans (ATCC 10231 and DF2672R); type: cell-based
Protocol: The time-kill kinetics was measured for two strains of C. albicans (ATCC 10231 and DF2672R). The cultures were grown overnight in SD broth and the cell concentration was adjusted to 10^5-10^6 CFU/ml with phosphate buffer. The peptide or antifungals were added to the individual cultures. […] The test solution was incubated at 37° C. with constant shaking. 100 μL of the suspension is withdrawn at predetermined time points, serially diluted (10^2 or 10^3 fold) and poured into the SDA plate. The plate was incubated for 48 h at 37° C. for colony counting. The data were expressed in terms of % cell viability relative to the positive control.

In the case of `C[C@@H]1[C@H](O)[C@@H](C)/C=C/C=C/CC/C=C/C=C/C=C/C=C/C(O[C@H]2O[C@H](C)[C@@H](O)[C@H](N)[C@@H]2O)CC2O[C@](O)(CC(O)C(O)CCC(O)CC(O)CC(O)CC(=O)O[C@H]1C)CC(O)C2C(=O)O` (stereo partly shown) [Nystatin], the logP [1] is given as 0.5, the Activity [2] is given as “Broad spectrum” and the Solubility [3] is given as 360 (24° C.) mg/L.
In the case of `C[C@@H]1[C@H](O)[C@@H](C)/C=C/C=C/C=C/C=C/C=C/C=C/C=C/[C@H](O[C@@H]2O[C@H](C)[C@@H](O)[C@H](N)[C@@H]2O)C[C@@H]2O[C@](O)(C[C@@H](O)C[C@@H](O)[C@H](O)CC[C@@H](O)C[C@@H](O)CC(=O)O[C@H]1C)C[C@H](O)[C@H]2C(=O)O` [Amphotericin B, reference compound], the Activity [2] is listed as “Broad spectrum; also recorded: Excellent agains Aspergilus & Candida”, the “MIC for two C. albicans clinical isolates” value ([4]; two C. albicans clinical isolates) is listed as 1.4 µM and the HC50 [5] is listed as 59.4 ± 7.8 µM. For the same molecule, the EC50 [6] was 134 ± 16 µM and the “time to maximal effect” value ([7]; C. albicans DF2672R, 16×MIC) was “less than 8 h”.
For `C[C@@H]1C/C=C/C=C/C=C/C=C/[C@H](O[C@@H]2O[C@H](C)[C@@H](O)[C@H](N)[C@@H]2O)C[C@@H]2O[C@](O)(C[C@@H](O)C[C@H]3O[C@@H]3/C=C/C(=O)O1)C[C@H](O)[C@H]2C(=O)O` [Natamycin, reference compound], the Activity [2] is given as “Broad spectrum”, the MIC ([4]; Candida albicans, C. albicans DF2672R) is given as 15 µM (≈ 9.99 µg/mL) and the HC50 ([5]; rabbit, 1 h) is given as 139.6 ± 0.18 µM. The “time required to achieve similar endpoints (4 log reduction)” value ([7]; ATCC strain, 16×MIC) was 24 h and the fungicidal action ([7]; C. albicans DF2672R, 2×MIC, 24 h exposure) was “no fungicidal action”.
For `CN(C/C=C/C#CC(C)(C)C)Cc1cccc2ccccc12` [Terbinafine], the logP [1] is given as 5.9, the Activity [2] is given as “Broad spectrum” and the Solubility [3] is given as 0.00074 mg/L (≈ 2.54 nM).

— US20150225454A1, “TETRABRANCHED PEPTIDES AND ANALOGUES AS A NEW CLASS OF ANTIMICROBIALS AND THEIR PREPARATION THEREOF” (priority 2012, published 2015)
